Measured values reported in ChEMBL document CHEMBL6109139, “Rational Design of the First Dual Agonist at Trace Amine-Associated Receptor 1 and 5-HT2C Receptors Based on Binding Pocket Similarity for the Treatment of Schizophrenia and Alzheimer's Disease-Related Psychosis” (J Med Chem, 2025).
Active and inactive are the calls of the source. The calls are words filed in the database; no cut-off is given here.

Tests used:
[1] = Toxicity in male Beagle dog assessed as somnolence at 2.5 mg/kg, IG administered once daily for 4 weeks; type: organism-based, Canis lupus familiaris; conditions: in vivo, po, 672 h
[2] = Toxicity in male Sprague-Dawley rat assessed as change in clinical chemistry at 2.5 to 7.5 mg/kg, po administered once daily for 4 weeks and measured after 4 weeks; type: organism-based; conditions: in vivo, 1344 h, dose 2.5-7.5 mg/kg, time 8 weeks
[3] = molecular target: 3',5'-cyclic-AMP phosphodiesterase 4D (Homo sapiens) (UniProt Q08499); test: Binding affinity to PDE4D2 receptor (unknown origin) at 10 uM by radioligand binding assay relative to control
[4] = Toxicity in male Beagle dog assessed as change in bone marrow smears at 0.75 to 2.5 mg/kg, IG administered once daily for 4 weeks and measured after 4 weeks; type: organism-based, Canis lupus familiaris; conditions: in vivo, po, 1344 h, dose 0.75-2.5 mg/kg, time 8 weeks
[5] = molecular target: 5-hydroxytryptamine receptor 7 (Homo sapiens, UniProt P34969); test: Agonist activity at recombinant human 5-HT7 expressed in HEK293 cells by measuring maximum efficacy at 2 uM by FLIPR calcium assay relative to control; type: functional, cell-based; conditions: filed as agonist
[6] = Drug concentration in male Sprague-Dawley rat brain at 5 mg/kg, IG measured after 0.25 hrs by LC-MS/MS analysis; type: ADME, organism-based; conditions: in vivo, po
[7] = Toxicity in female Beagle dog assessed as change in blood pressure at 0.75 to 2.5 mg/kg, IG administered once daily for 4 weeks and measured after 4 weeks; type: organism-based, Canis lupus familiaris; conditions: in vivo, po, 1344 h, dose 0.75-2.5 mg/kg, time 8 weeks
[8] = Toxicity in female Beagle dog assessed as change in organ weight at 0.75 to 2.5 mg/kg, IG administered once daily for 4 weeks and measured after 4 weeks; type: organism-based, Canis lupus familiaris; conditions: in vivo, po, 1344 h, dose 0.75-2.5 mg/kg, time 8 weeks
[9] = molecular target: 5-hydroxytryptamine receptor 2C (Rattus norvegicus) (UniProt P08909); test: Agonist activity at rat 5-HT2CR by measuring maximum efficacy relative to control; type: functional; conditions: filed as agonist
[10] = molecular target: Acetylcholinesterase (Homo sapiens) (UniProt P22303); test: Binding affinity to ACHE (unknown origin) at 10 uM by radioligand binding assay relative to control
[11] = Toxicity in male Beagle dog assessed as change in body weight at 0.75 to 2.5 mg/kg, IG administered once daily for 4 weeks and measured after 4 weeks; type: organism-based, Canis lupus familiaris; conditions: in vivo, po, 1344 h, dose 0.75-2.5 mg/kg, time 8 weeks
[12] = Ratio of drug concentration in male Sprague-Dawley rat brain to plasma at 5 mg/kg, IG measured after 0.25 hrs by LC-MS/MS analysis; type: ADME, organism-based; conditions: brain and plasma, po, read-out: BPR
[13] = Toxicity in female Sprague-Dawley rat assessed as corneal epithelial degeneration at 7.5 mg/kg, po administered once daily for 4 weeks; type: organism-based; conditions: in vivo, 672 h
[14] = Toxicity in male Sprague-Dawley rat assessed as slow respiration at 7.5 mg/kg, po administered once daily for 4 weeks; type: organism-based; conditions: in vivo, 672 h
[15] = Cardiotoxicity in conscious cynomolgus monkey assessed as arrhythmia at 3.125 to 12.5 mg/kg, IG measured within 24 hrs; type: toxicity, organism-based, Macaca fascicularis; conditions: in vivo, po, dose 3.125-12.5 mg/kg
[16] = Toxicity in male Sprague-Dawley rat assessed as minimal corneal neovascularization at 2.5 to 7.5 mg/kg, po administered once daily for 4 weeks and measured after 4 weeks; type: organism-based; conditions: in vivo, 1344 h, dose 2.5-7.5 mg/kg, time 8 weeks
[17] = molecular target: 5-hydroxytryptamine receptor 1A (Homo sapiens, UniProt P08908); test: Agonist activity at human 5-HT1A expressed in CHO cells coexpressing Galpha15 by FLIPR calcium assay; type: functional, cell-based
[18] = Cardiotoxicity in conscious cynomolgus monkey assessed as normal spontaneous movement at 3.125 to 12.5 mg/kg, IG; type: toxicity, organism-based, Macaca fascicularis; conditions: in vivo, po, dose 3.125-12.5 mg/kg
[19] = Toxicity in female Sprague-Dawley rat assessed as change in prolactin level at 2.5 to 7.5 mg/kg, po administered once daily for 4 weeks and measured after 4 weeks; type: organism-based; conditions: in vivo, 1344 h, dose 2.5-7.5 mg/kg, time 8 weeks
[20] = molecular target: GABA-A receptor; anion channel (Homo sapiens) (UniProt P14867+P47870+P18507+P28472+P48169+Q99928+Q9UN88+P34903+O00591+O14764+Q8N1C3+P18505+P78334+P47869+P31644+Q16445); test: Binding affinity to GABAA (unknown origin) at 10 uM by radioligand binding assay relative to control; type: protein-complex assay
[21] = Toxicity in female Sprague-Dawley rat assessed as change in blood glucose level at 2.5 to 7.5 mg/kg, po administered once daily for 4 weeks and measured after 4 weeks; type: organism-based; conditions: in vivo, 1344 h, dose 2.5-7.5 mg/kg, time 8 weeks
Mus musculus [22] = test: Antipsychotic activity against DOI-induced head-twitch response in mouse assessed as reduction in head-twitch response administered intragastrically and measured for 30 mins; type: functional, organism-based; conditions: dose 1-10 mg/kg
[23] = Toxicity in male Beagle dog assessed as change in body temperature at 0.75 to 2.5 mg/kg, IG administered once daily for 4 weeks and measured after 4 weeks; type: organism-based, Canis lupus familiaris; conditions: in vivo, po, 1344 h, dose 0.75-2.5 mg/kg, time 8 weeks
Mus musculus [24] = test: Antidepressant activity in chronic social defeat stress induced depressive C57BL/6J mouse model assessed as increase in time of interaction zone administered intragastrically measured after 15 mins by open field test; type: functional, organism-based; conditions: dose 0.5-2 mg/kg
[25] = Toxicity in male Sprague-Dawley rat assessed as change in bone marrow smears at 2.5 to 7.5 mg/kg, po administered once daily for 4 weeks and measured after 4 weeks; type: organism-based; conditions: in vivo, 1344 h, dose 2.5-7.5 mg/kg, time 8 weeks
[26] = molecular target: D(1A) dopamine receptor (Homo sapiens) (UniProt P21728); test: Binding affinity to D1 receptor (unknown origin) at 10 uM by radioligand binding assay relative to control
[27] = molecular target: Sodium-dependent noradrenaline transporter (Homo sapiens) (UniProt P23975); test: Binding affinity to NET receptor (unknown origin) at 10 uM by radioligand binding assay relative to control
[28] = Toxicity in male Beagle dog assessed as change in organ ratios at 0.75 to 2.5 mg/kg, IG administered once daily for 4 weeks and measured after 4 weeks; type: organism-based, Canis lupus familiaris; conditions: in vivo, po, 1344 h, dose 0.75-2.5 mg/kg, time 8 weeks
[29] = Toxicity in male Sprague-Dawley rat assessed as slow respiration at 7.5 mg/kg, po administered once daily for 4 weeks and measured after 4 weeks; type: organism-based; conditions: in vivo, 1344 h, time 8 weeks
Mus musculus [30] = test: Antipsychotic activity against MK-801 induced hyperlocomotion in male C57BL/6J mouse model at 3 mg/kg, IG […] followed by compound addition and measured after 30 mins by open field test; type: functional, organism-based
[31] = Toxicity in male Beagle dog assessed as minimal decrease activity at 2.5 mg/kg, IG administered once daily for 4 weeks; type: organism-based, Canis lupus familiaris; conditions: in vivo, po, 672 h
[32] = molecular target: 5-hydroxytryptamine receptor 2A (Homo sapiens) (UniProt P28223); test: Binding affinity to 5-HT2A (unknown origin) at 10 uM by radioligand binding assay relative to control
[33] = molecular target: 5-hydroxytryptamine receptor 1B (Homo sapiens) (UniProt P28222); test: Binding affinity to 5-HT1B (unknown origin) at 10 uM by radioligand binding assay relative to control
[34] = molecular target: 5-hydroxytryptamine receptor 2C (Rattus norvegicus, UniProt P08909); test: Agonist activity at rat 5-HT2CR; type: functional
Cytochrome P450 3A4 = Cytochrome P450 3A4 (Homo sapiens, UniProt P08684); test: Inhibition of CYP3A4 in human liver microsomes in presence of NADPH by LC-MS/MS analysis; type: ADME, Microsome
Cytochrome P450 3A4, sequence (P08684 whole entry): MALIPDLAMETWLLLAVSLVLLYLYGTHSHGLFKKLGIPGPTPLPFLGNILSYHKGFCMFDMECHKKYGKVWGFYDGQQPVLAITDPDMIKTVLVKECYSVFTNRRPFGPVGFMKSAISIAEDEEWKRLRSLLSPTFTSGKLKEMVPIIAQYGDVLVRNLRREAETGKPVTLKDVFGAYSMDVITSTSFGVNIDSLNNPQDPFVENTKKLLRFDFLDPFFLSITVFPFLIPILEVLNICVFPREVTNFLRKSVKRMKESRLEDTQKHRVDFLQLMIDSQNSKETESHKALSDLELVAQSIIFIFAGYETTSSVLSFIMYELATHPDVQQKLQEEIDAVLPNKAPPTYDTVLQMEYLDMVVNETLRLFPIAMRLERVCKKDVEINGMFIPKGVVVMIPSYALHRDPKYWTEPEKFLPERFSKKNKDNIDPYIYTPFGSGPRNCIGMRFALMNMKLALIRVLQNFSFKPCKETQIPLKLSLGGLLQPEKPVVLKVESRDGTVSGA

5-hydroxytryptamine receptor 1A, sequence (P08908 whole entry): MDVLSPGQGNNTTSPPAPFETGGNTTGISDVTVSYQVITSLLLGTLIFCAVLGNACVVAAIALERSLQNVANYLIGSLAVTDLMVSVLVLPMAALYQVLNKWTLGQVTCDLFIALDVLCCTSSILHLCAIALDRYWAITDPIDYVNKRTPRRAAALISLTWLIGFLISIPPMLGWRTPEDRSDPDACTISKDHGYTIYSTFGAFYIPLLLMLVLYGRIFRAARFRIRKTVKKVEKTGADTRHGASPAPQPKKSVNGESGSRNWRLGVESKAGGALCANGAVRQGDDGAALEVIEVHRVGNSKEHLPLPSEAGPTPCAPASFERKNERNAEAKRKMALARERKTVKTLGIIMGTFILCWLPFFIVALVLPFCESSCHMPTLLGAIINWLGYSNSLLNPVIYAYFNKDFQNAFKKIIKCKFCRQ
3',5'-cyclic-AMP phosphodiesterase 4D (Homo sapiens), sequence (Q08499 whole entry): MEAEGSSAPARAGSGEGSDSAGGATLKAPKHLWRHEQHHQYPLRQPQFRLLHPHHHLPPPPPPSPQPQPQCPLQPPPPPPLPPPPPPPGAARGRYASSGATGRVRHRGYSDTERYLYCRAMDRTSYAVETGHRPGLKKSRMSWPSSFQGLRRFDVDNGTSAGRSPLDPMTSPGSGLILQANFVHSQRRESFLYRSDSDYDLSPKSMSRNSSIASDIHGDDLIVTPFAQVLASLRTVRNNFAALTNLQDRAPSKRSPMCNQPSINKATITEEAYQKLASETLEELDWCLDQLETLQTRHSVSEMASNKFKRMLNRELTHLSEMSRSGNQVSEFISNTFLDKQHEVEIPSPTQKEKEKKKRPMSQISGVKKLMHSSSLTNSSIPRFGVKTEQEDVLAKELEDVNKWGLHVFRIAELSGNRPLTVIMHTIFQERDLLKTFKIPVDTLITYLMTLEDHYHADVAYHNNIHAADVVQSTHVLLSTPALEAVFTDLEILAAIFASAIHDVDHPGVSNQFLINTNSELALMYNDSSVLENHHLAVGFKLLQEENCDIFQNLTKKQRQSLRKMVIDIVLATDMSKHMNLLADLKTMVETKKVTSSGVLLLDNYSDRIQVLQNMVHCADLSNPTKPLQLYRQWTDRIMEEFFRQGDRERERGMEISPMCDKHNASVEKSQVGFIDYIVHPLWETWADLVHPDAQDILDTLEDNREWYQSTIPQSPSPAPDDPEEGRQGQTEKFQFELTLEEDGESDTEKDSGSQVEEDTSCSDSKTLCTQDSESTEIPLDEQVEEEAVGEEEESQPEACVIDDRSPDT
5-hydroxytryptamine receptor 7, sequence (P34969 whole entry): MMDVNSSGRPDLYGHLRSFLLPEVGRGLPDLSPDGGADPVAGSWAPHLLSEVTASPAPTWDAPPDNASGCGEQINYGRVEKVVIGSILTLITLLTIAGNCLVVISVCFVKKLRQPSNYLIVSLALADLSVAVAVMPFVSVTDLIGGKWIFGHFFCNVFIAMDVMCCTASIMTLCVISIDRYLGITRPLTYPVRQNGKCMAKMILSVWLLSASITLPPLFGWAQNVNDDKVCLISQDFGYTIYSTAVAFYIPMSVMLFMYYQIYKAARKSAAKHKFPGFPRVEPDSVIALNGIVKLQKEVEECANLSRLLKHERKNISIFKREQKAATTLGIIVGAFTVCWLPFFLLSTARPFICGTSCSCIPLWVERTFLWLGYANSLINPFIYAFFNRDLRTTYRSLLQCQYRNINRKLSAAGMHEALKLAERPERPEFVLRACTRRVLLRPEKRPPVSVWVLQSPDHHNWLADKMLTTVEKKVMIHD
Acetylcholinesterase (Homo sapiens), sequence (P22303 whole entry): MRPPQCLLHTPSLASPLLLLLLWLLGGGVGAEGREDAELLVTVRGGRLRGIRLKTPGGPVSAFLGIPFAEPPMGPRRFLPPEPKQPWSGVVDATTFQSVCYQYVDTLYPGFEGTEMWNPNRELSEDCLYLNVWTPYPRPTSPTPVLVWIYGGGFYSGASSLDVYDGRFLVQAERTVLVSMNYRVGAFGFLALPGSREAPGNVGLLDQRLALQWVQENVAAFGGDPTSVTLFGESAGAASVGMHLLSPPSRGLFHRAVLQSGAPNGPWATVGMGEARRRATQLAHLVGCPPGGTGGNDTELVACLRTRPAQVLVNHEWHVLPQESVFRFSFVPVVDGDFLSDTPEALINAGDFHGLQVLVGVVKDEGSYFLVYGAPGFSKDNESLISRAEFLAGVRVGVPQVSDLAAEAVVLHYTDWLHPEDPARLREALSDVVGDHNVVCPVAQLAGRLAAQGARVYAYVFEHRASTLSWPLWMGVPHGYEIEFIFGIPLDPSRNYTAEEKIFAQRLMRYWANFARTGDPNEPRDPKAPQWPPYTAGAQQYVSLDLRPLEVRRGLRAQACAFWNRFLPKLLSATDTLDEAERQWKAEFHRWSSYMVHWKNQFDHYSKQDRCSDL
Sodium-dependent noradrenaline transporter (Homo sapiens), sequence (P23975 whole entry): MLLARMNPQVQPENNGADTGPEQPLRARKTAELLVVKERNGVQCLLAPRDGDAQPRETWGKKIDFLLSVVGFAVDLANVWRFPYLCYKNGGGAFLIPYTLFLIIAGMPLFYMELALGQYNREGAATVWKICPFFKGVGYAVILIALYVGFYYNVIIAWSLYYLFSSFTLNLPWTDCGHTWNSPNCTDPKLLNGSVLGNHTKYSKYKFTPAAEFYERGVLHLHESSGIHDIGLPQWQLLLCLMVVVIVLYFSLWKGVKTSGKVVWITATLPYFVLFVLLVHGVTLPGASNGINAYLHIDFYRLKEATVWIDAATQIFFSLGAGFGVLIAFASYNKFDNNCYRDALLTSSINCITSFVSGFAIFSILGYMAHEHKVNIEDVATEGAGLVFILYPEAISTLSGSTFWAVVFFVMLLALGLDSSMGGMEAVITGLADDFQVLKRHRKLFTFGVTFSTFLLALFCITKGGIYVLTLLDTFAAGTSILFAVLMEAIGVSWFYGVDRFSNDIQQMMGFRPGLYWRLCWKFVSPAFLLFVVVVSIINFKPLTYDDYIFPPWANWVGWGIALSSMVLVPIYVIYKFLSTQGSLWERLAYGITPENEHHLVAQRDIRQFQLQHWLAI
5-hydroxytryptamine receptor 1B (Homo sapiens), sequence (P28222 whole entry): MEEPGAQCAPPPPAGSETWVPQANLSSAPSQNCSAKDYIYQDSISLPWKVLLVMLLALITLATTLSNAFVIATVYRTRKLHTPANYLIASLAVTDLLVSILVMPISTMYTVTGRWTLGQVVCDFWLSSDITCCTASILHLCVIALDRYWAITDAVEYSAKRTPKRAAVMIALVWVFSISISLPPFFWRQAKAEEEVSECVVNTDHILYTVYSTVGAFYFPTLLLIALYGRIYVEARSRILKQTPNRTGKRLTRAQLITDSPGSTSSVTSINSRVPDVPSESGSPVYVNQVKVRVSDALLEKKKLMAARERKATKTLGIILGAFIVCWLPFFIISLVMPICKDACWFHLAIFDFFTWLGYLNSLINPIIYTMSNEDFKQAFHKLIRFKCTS
D(1A) dopamine receptor (Homo sapiens), sequence (P21728 whole entry): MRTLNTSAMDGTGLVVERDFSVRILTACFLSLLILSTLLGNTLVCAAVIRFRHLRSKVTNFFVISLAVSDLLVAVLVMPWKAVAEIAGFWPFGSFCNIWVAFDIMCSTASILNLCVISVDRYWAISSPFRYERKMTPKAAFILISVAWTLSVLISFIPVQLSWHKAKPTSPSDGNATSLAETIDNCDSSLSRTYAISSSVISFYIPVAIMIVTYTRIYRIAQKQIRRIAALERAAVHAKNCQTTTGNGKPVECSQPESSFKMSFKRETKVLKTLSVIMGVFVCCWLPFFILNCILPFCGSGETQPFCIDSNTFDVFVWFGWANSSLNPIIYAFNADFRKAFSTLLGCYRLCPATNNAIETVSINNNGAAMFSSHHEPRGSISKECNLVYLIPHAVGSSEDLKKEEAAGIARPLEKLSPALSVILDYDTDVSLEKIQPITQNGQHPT
5-hydroxytryptamine receptor 2C (Rattus norvegicus), sequence (P08909 whole entry): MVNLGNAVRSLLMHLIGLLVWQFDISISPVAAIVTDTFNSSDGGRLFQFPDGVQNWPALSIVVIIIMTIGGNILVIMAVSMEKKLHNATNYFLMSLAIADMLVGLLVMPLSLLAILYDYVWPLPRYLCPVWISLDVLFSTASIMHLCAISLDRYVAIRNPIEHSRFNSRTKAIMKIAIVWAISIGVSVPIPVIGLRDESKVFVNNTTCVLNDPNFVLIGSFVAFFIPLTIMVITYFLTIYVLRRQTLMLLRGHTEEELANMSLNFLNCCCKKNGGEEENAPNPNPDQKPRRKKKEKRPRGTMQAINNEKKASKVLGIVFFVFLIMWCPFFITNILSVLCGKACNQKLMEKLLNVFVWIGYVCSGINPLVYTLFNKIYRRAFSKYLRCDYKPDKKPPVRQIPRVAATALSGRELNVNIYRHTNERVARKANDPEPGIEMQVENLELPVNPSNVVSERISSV
5-hydroxytryptamine receptor 2C, sequence (P08909 whole entry): as above

**Q.** What does the source list for `c1cc2c(s1)[C@@H]1CNCCN1CC2`?
**A.** Activity [1]: Toxic; Activity [2]: Non-toxic; Activity [3]: 5.4%; Activity [4]: Non-toxic; Emax [5]: 65.5%; Ct [6]: 39250 nmol/kg; Activity [7]: Non-toxic; Activity [8]: Non-toxic; Emax [9]: 108%; Activity [10]: -0.73%; Activity [11]: Non-toxic; Kp at 0.25 h [12]: 8.45; Activity [13]: Toxic; Activity [14]: Toxic; Activity [15]: Non-toxic; Activity [16]: Non-toxic; EC50 [17]: 31.5 µM; Activity [18]: Non-toxic; Activity [19]: Non-toxic; Activity [20]: -21.4%; Activity [21]: Non-toxic; Activity (Mus musculus [22]): Dose-dependent-effect; Activity [23]: Non-toxic; Activity (Mus musculus [24]): Dose-dependent-effect; Activity [25]: Non-toxic; Activity [26]: 45.9%; Activity [27]: 8.57%; Activity [28]: Non-toxic; Activity [29]: Non-toxic; Activity (Mus musculus [30]): inactive; Activity [31]: Toxic; Activity [32]: 36.5%; Activity [33]: 47.9%; EC50 [34]: 70.2 nM; IC50 (Cytochrome P450 3A4): > 50 µM
